Source: article doi:10.1101/2021.04.08.439011v1 (biorxiv, 2021)

How the values were obtained:
Conditions in all cases: 0.1 µM; binder
PRKD2 = PRKD2 (Homo sapiens, UniProt Q9BZL6)
EGFR(L861Q) = EGFR(L861Q) (Homo sapiens, UniProt P00533, L861Q)
PRKG2 = PRKG2 (Homo sapiens, UniProt Q13237)
LIMK1 = LIMK1 (Homo sapiens, UniProt P53667)
CSNK1G1 = CSNK1G1 (Homo sapiens, UniProt Q9HCP0)
MST1R = MST1R (Homo sapiens, UniProt Q04912)
GSK3B = GSK3B (Homo sapiens, UniProt P49841)
MAP3K3 = MAP3K3 (Homo sapiens, UniProt Q99759)
LYN = LYN (Homo sapiens, UniProt P07948)
CAMK2A = CAMK2A (Homo sapiens, UniProt Q9UQM7)
MAP3K2 = MAP3K2 (Homo sapiens, UniProt Q9Y2U5)
PFTAIRE2 = PFTAIRE2 (Homo sapiens, UniProt Q96Q40)
SRPK1 = SRPK1 (Homo sapiens, UniProt Q96SB4)
CAMK1G = CAMK1G (Homo sapiens, UniProt Q96NX5)
DCAMKL3 = DCAMKL3 (Homo sapiens, UniProt Q9C098)
WEE2 = WEE2 (Homo sapiens, UniProt P0C1S8)
PRKCH = PRKCH (Homo sapiens, UniProt P24723)
CLK2 = CLK2 (Homo sapiens, UniProt P49760)
CDK7 = CDK7 (Homo sapiens, UniProt P50613)
GRK1 = GRK1 (Homo sapiens, UniProt Q15835)
RET = RET (Homo sapiens, UniProt P07949)
MKNK2 = MKNK2 (Homo sapiens, UniProt Q9HBH9)
ERK1 = ERK1 (Homo sapiens, UniProt P27361)
TLK1 = TLK1 (Homo sapiens, UniProt Q9UKI8)
CAMKK2 = CAMKK2 (Homo sapiens, UniProt Q96RR4)
EGFR = EGFR (Homo sapiens, UniProt P00533)
CSNK1G2 = CSNK1G2 (Homo sapiens, UniProt P78368)
RET(M918T) = RET(M918T) (Homo sapiens, UniProt P07949, M918T)
YANK3 = YANK3 (Homo sapiens, UniProt Q86UX6)
PIKFYVE = PIKFYVE (Homo sapiens, UniProt Q9Y2I7)
EPHB1 = EPHB1 (Homo sapiens, UniProt P54762)
Chain of EPHB1 (P54762 whole entry): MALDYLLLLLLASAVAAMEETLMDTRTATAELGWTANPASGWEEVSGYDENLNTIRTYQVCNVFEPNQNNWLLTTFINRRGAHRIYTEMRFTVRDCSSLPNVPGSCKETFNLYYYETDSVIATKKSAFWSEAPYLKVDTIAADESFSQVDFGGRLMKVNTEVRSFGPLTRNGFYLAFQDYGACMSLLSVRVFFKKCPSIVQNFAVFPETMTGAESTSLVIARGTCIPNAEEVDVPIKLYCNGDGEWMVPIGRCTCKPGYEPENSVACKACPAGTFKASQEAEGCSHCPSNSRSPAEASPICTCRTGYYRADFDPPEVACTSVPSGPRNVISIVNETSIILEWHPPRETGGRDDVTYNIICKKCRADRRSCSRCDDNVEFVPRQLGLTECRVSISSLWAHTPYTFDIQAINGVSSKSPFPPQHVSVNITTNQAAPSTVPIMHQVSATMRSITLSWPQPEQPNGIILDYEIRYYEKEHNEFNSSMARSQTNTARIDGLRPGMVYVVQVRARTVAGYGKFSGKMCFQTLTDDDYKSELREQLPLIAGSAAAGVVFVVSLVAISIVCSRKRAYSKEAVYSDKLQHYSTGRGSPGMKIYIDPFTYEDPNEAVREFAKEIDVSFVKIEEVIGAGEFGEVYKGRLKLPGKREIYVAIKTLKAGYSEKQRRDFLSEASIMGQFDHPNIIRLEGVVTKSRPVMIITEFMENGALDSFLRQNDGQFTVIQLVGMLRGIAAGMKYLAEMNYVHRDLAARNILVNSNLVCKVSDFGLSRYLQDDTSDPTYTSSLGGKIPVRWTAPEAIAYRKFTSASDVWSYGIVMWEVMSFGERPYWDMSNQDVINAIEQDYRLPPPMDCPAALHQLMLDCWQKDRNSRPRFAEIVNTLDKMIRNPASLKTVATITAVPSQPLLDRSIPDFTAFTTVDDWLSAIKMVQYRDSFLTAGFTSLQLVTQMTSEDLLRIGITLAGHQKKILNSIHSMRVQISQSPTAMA

Chain of LYN (P07948 whole entry): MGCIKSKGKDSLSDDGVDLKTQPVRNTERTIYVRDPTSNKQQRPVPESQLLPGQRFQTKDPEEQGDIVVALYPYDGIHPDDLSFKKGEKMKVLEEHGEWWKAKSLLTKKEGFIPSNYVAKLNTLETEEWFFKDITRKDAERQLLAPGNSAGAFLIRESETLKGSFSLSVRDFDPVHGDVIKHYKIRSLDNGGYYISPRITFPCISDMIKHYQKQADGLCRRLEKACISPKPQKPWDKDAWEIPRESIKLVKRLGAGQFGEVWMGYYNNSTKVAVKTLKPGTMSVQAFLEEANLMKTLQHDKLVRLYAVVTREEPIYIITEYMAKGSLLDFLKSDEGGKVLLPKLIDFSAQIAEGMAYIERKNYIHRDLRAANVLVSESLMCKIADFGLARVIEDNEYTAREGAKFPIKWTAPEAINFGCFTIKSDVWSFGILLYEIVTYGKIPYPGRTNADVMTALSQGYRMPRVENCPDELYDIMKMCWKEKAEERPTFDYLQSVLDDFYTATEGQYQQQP
Chain of PRKD2 (Q9BZL6 whole entry): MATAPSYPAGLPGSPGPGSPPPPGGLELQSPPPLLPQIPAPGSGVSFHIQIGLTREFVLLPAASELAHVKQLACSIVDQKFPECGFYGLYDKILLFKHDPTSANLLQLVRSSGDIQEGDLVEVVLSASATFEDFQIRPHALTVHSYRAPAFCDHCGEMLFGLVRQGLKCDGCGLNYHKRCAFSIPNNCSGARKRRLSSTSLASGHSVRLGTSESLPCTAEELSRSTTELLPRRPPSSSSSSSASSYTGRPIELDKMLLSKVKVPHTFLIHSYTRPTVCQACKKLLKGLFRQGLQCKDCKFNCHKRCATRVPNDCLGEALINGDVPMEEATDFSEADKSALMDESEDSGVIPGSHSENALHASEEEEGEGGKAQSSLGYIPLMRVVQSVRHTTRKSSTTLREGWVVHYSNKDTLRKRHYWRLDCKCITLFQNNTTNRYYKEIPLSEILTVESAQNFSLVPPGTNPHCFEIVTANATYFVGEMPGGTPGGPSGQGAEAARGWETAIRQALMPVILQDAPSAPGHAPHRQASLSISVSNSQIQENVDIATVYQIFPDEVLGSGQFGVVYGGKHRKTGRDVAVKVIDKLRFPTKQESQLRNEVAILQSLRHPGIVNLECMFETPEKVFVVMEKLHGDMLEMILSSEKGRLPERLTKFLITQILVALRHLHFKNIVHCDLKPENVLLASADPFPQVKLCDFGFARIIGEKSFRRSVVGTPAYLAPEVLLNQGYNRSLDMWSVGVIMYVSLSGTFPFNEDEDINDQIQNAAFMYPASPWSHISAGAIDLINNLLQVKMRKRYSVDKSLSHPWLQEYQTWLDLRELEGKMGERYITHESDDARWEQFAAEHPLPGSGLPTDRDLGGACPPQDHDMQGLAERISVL
Chain of WEE2 (P0C1S8 whole entry): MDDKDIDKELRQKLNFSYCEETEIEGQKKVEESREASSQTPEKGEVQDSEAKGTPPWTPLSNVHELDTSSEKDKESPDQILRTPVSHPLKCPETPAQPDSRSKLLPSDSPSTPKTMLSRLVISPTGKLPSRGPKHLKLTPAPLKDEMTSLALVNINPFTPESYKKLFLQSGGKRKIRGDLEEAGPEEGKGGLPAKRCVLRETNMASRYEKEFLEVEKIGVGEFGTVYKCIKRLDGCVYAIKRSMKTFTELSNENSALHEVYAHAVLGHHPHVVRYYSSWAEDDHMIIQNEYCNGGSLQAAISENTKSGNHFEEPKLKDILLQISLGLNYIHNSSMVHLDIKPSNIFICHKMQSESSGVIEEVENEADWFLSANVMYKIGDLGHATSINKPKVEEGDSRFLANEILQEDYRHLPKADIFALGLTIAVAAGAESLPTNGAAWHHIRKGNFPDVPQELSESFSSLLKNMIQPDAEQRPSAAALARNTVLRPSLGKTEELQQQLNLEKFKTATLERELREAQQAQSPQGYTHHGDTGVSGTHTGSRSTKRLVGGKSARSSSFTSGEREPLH
Chain of PRKCH (P24723 whole entry): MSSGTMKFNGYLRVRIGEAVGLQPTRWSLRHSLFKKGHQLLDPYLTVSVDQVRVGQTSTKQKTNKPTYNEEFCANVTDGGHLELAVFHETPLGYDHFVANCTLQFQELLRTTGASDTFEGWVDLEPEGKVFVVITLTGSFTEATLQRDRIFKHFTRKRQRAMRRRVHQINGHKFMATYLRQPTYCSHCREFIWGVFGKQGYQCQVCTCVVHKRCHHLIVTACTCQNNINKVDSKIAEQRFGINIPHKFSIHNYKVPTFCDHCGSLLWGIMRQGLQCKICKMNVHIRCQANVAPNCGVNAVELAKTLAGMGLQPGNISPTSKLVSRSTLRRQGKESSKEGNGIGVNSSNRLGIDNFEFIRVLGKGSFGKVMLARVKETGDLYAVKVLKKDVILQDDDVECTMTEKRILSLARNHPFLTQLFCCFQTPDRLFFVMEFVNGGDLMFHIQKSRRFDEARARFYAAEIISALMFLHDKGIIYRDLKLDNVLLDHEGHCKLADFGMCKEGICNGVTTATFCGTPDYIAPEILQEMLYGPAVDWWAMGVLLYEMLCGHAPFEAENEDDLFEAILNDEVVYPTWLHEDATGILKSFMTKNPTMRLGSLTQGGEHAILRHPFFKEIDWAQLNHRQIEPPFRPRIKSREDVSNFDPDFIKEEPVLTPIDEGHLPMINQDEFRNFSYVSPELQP
Chain of GSK3B (P49841 whole entry): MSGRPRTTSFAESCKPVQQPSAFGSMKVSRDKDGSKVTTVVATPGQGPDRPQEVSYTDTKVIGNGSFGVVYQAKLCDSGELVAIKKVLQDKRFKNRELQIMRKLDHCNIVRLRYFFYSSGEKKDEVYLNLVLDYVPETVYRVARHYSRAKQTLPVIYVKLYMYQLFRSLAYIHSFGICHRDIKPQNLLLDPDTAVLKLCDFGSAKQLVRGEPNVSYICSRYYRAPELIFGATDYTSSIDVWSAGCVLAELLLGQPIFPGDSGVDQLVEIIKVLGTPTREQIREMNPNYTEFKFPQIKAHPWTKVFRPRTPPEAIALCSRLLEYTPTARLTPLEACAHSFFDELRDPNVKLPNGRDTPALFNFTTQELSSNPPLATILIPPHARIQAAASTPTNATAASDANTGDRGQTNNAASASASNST
Chain of CDK7 (P50613 whole entry): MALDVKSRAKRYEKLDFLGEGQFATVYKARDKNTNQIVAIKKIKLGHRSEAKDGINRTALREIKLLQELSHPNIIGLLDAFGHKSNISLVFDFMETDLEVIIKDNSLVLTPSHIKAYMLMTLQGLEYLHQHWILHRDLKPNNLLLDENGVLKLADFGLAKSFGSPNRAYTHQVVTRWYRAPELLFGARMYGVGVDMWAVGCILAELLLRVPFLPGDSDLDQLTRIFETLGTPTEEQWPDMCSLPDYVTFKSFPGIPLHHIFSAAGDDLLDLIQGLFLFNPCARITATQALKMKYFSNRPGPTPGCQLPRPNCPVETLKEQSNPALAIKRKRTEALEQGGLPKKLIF
Chain of PFTAIRE2 (Q96Q40 whole entry): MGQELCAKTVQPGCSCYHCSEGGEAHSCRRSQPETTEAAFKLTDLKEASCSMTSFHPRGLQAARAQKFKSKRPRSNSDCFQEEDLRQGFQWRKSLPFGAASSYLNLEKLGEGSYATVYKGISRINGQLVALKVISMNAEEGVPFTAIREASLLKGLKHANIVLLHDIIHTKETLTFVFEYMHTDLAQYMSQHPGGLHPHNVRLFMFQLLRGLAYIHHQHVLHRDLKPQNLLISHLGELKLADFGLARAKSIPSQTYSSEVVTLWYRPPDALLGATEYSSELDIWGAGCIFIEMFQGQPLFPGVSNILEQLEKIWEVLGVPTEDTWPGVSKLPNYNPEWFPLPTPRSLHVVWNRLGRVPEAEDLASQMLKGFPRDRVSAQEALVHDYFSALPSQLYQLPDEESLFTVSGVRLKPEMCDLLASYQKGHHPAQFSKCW

CNc1ncc2cc(-c3ccc(-c4cccc(C)n4)cc3Cl)c(=O)n(C[C@H]3OC[C@H](N)CO3)c2n1 [compound 6, G-5555]
Percent Control (PRKD2): 92%
Percent Control (EGFR(L861Q)): 100%
Percent Control (PRKG2): 86%
Percent Control (LIMK1): 93%
Percent Control (CSNK1G1): 100%
Percent Control (MST1R): 73%
Percent Control (GSK3B): 97%
Percent Control (MAP3K3): 86%
Percent Control (LYN): 100%
Percent Control (CAMK2A): 79%
Percent Control (MAP3K2): 97%
Percent Control (PFTAIRE2): 100%
Percent Control (SRPK1): 94%
Percent Control (CAMK1G): 100%
Percent Control (DCAMKL3): 29%
Percent Control (WEE2): 100%
Percent Control (PRKCH): 82%
Percent Control (CLK2): 100%
Percent Control (CDK7): 100%
Percent Control (GRK1): 100%
Percent Control (RET): 96%
Percent Control (MKNK2): 100%
Percent Control (ERK1): 100%
Percent Control (TLK1): 100%
Percent Control (CAMKK2): 100%
Percent Control (EGFR): 100%
Percent Control (CSNK1G2): 100%
Percent Control (RET(M918T)): 100%
Percent Control (YANK3): 99%
Percent Control (PIKFYVE): 100%
Percent Control (EPHB1): 100%
